Consider seven molecules from PubChem BioAssay (NCI).

Holding throughout (experiment): inhibition of tumour cell growth, NCI panel, 48 h
Assay [1] concerns UO-31 renal.
Assay [2] relates to COLO 205 colon.
Assay [3] has as its system HCC-2998 colon.
The test system of assay [4] is RPMI-8226 leukemia.
Assay [5] concerns SW-620 colon.
Assay [6] deals with MDA-N.
Assay [7] relates to SK-MEL-28 melanoma.
In assay [8] the test system is 786-0 renal.
Assay [9] relates to HCT-15 colon.
Assay [10] deals with HS 578T breast.
Assay [11] deals with SN12C renal.
Assay [12] deals with SK-OV-3 ovarian.
Assay [13] deals with LOX IMVI melanoma.
Assay [14] concerns SF-295 CNS.
In assay [15] the test system is DU-145 prostate.
Assay [16] deals with OVCAR-5 ovarian.
The subject of assay [17] is UACC-62 melanoma.
Assay [18] has as its system A498 renal.
Assay [19] has as its system KM12 colon.
The test system of assay [20] is SNB-19 CNS.

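Protocol summary: plate cells (96-well), add compound at 5 concentrations, incubate 48 h, interpolate endpoints linearly. TGI: concentration producing complete growth inhibition.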

Turning to `COc1cccc(CCn2c(N)c(-c3cc(Cl)cc(Cl)c3)c3ccc([N+](=O)[O-])cc3c2=O)c1`, the TGI is 25.5 µM in assay [1]; 4.05 µM in [2]; greater than 31.6 µM in assay [3]; 3.02 µM in assay [4]; greater than 100 µM in assay [5]; greater than 100 µM in assay [6]. The TGI in assay [7] is greater than 100 µM; in assay [8] it was greater than 100 µM; in assay [9], greater than 44.5 µM; in [10] it was greater than 38 µM; in assay [11], greater than 86.7 µM; in [12] it was greater than 100 µM. Besides, the TGI was greater than 56.1 µM in assay [13]; greater than 100 µM in assay [14]; greater than 25.3 µM in assay [15]; greater than 100 µM in assay [16]; greater than 100 µM in assay [17]; greater than 28.8 µM in assay [18]. The TGI was greater than 100 µM in [19] and greater than 44 µM in assay [20].

`COc1ccccc1/C=C1\CCC(Cc2ccccc2)(CN(C)C)C1=O` (stereo not given): the TGI in assay [1] was greater than 100 µM; in [2], 7.82 µM; in assay [3], 24.3 µM; in assay [4], 39.1 µM; in assay [5], 35.2 µM; in assay [6], 3.12 µM. For the same molecule, the TGI in [7] was greater than 100 µM; in assay [8] it was 23.4 µM; in assay [9], 14.4 µM; in [10], greater than 100 µM; in [11], 50.3 µM; in assay [12], greater than 42.2 µM. The TGI was 29.4 µM in assay [13]; greater than 63.1 µM in assay [14]; greater than 100 µM in assay [15]; greater than 81.9 µM in assay [16]; greater than 26.1 µM in assay [17]; 27.6 µM in [18]. Besides, the TGI was 15.9 µM in assay [19] and greater than 100 µM in [20].

Turning to `O=C(c1ccccc1)c1ccc(N2C(=O)/C(=C/c3cccc(Oc4ccccc4)c3)N=C2c2ccccc2)c(N2C(=O)/C(=C/c3cccc(Oc4ccccc4)c3)N=C2c2ccccc2)c1`, the TGI in [1] is greater than 100 µM; in assay [2] it was 37.1 µM; in assay [3], 48.8 µM; in [4], 96.4 µM; in assay [5], greater than 100 µM; in [6] it was 69 µM. Also, the TGI is greater than 100 µM in assay [7]; greater than 100 µM in assay [8]; greater than 100 µM in [9]; 88.5 µM in assay [10]; greater than 100 µM in [11]; greater than 100 µM in [12]. The TGI in assay [13] was greater than 100 µM; in [14] it was greater than 100 µM; in assay [15], greater than 100 µM; in assay [16] it was greater than 100 µM; in assay [17], 24.5 µM; in [18], greater than 100 µM. Also, the TGI in assay [19] and in [20] was greater than 100 µM in each case.

For `CC/C(Cl)=N\OC(=O)Nc1ccc(F)c(Cl)c1`, the TGI in assay [1] was 32.3 µM; in assay [2], 8.16 µM; in assay [3], 35.3 µM; in [4], greater than 100 µM; in assay [5] it was 6.92 µM; in [6], 33.4 µM. Also, the TGI in assay [7] was 30.1 µM; in assay [8], 18 µM; in [9], 35.5 µM; in assay [10], greater than 100 µM; in [11], 40.2 µM; in [12] it was 32.5 µM. Also, the TGI in assay [13] was determined as 9.68 µM; in assay [14], 33.1 µM; in assay [15], 34.2 µM; in assay [16], 31.4 µM; in assay [17] it was 46.3 µM; in assay [18], 30.8 µM. Besides, the TGI in assay [19] stood at 35 µM; in assay [20] it was 20.7 µM.

On to `CSC12c3cc(C)n(-c4ccc(I)cc4)c3CC(C)(C)CN1C(=O)C2Oc1ccccc1` (stereo not given), for which the TGI in assay [1], in [2], in [3], in assay [4], in [5] and in [6] was greater than 100 µM each time. Besides, the TGI in assay [7], in [8], in [9], in [10], in assay [11] and in assay [12] was greater than 100 µM throughout. In addition, the TGI in [13], in assay [14], in [15], in assay [16], in [17] and in [18] was greater than 100 µM each time. Moreover, the TGI in assay [19] and in assay [20] was greater than 100 µM throughout.

Turning to `CC1=CC2(C)C=C[C@@H]1C(=O)[C@@]1(C)CC[C@@](O)(C(C)C)[C@H]1CC2`, the TGI was 31.4 µM in assay [1]; 40.2 µM in assay [2]; 34.6 µM in [3]; 62 µM in assay [4]; 37.7 µM in assay [5]; 47.5 µM in assay [6]. Moreover, the TGI in assay [7] was 41.7 µM; in [8] it was 33.3 µM; in assay [9], 55.8 µM; in assay [10], 54.9 µM; in [11], 39.4 µM; in assay [12], 54.6 µM. The TGI in assay [13] stood at 39 µM; in assay [14], 38.1 µM; in assay [15] it was 72.1 µM; in [16] it was 34.6 µM; in assay [17], 45.5 µM; in assay [18], 45.6 µM. The TGI in assay [19] came to 41.7 µM; in assay [20], 65.7 µM.

For the molecule `Nc1ccc(-c2nc3ccccc3s2)cc1CO`, the TGI in assay [1], in assay [2], in [3], in [4], in assay [5] and in assay [6] was greater than 100 µM in each case. In addition, the TGI in [7], in [8], in assay [9], in assay [10], in [11] and in [12] was greater than 100 µM each time. For the same molecule, the TGI in assay [13], in [14], in [15], in assay [16], in assay [17] and in [18] was greater than 100 µM each time. Moreover, the TGI in assay [19] and in assay [20] was greater than 100 µM each time.
